Series [1] is described as follows: Solubility of free fatty acid in the formulation. To be noted: mAb formulation, aqueous with cosolvent or surfactant or cyclodextrin. It counts as physicochemical.
A short description of series [2]: Loss of heavy-isotope-labeled fatty acids during incubation (adsorption to container). Type of series: physicochemical. Particulars: 1% PS20, 200 mg/mL mAb3, 37° C., plastic tubes. The method, then:
The hydrolysis of PS20 in mAb formulations used for the fatty acid quantitation method of the invention was optimized by mixing 60 μL of 200 mg/mL mAb-3 (10 mM histidine, pH 6.3) with 0.62 μL, 1.26 μL, 3.2 μL and 6.8 μL 10% PS20 with or without 1.5 μL ISTD mixture (200 μg/mL lauric-d23 acid, 40 μg/mL myristic-d27 acid, and oleic acid-^13C18 in 20% methanol) in Eppendorf plastic tubes (category number 022431064) or Waters glass vials (SKU 600000668CV), […] Incubation samples were analyzed by LC multiple reaction monitoring (LC-MRM) after extraction (Table 2). Incubation conditions were optimized for measuring fatty acid content using LC-MRM after extraction. Fatty acids were extracted from mAb solution using an extraction protocol developed by Honemann et al. with an optimized precipitation buffer and extraction time (Honemann et al.). […] Subsequently, 40 μL of the supernatant was transferred to a 96-well plate, and 5 μL was subjected to LC-MRM for quantitation. […] Elution was performed at 0.4 mL/minute, and peaks at 1-7 minutes were analyzed using an ESI source operating in negative mode, with a gas temperature of 200° C., gas flow of 12 L/minute, nebulizer gas pressure of 20 psi, sheath gas temperature of 300° C., sheath gas flow of 11 L/min, capillary voltage of −3000 V, and nozzle voltage of 500 V. Lauric acid and lauric-d23 acid were monitored at 199.1/199.1 and 222.3/222.3; myristic acid and myristic-d27 acid were monitored at 227.2/227.2 and 254.4/254.4; palmitic acid, oleic acid, oleic acid-^13C18, stearic acid, and linoleic acid were monitored at 255.2/255.2, 281.2/281.2, 299.2/299.2, 283.2/283.2, and 279.2/279.2 with CE 5, respectively. […] Peak integration was performed by Skyline, and fatty acid concentrations were calculated based on a calibration curve created from a spiked-in fatty acid concentration plot against To investigate why fatty acids were lost during incubation, isotope-labeled fatty acids were employed. […]

Regarding `CCCCCCCCCCCC(=O)O` [lauric acid], the solubility (as a rule, the concentration that dissolves in the medium under given conditions) in series [1] was over 20 µg/mL. The “fatty acid lost after 6-day incubation” value in series [2] amounted to 50%.

In the case of `CCCCCCCCCCCCCC(=O)O` [myristic acid], the “fatty acid lost after 6-day incubation” value in series [2] came out at 34%.

Take `CCCCCCCC/C=C\CCCCCCCC(=O)O` [oleic acid]: the “fatty acid lost after 6-day incubation” value in series [2] worked out at 15%.
